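The compound was tested at five concentrations on cells cultured in 96-well plates, with a 48-hour exposure period. At the GI50, growth is halved. TGI denotes the concentration required for complete inhibition of growth.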 Bounds are passed on as bounds.

Among the test systems are 786-0 renal; CCRF-CEM leukemia; KM12 colon; MDA-MB-231 breast; MOLT-4 leukemia; OVCAR-3 ovarian; PC-3 prostate; SF-539 CNS; SK-MEL-2 melanoma; SR leukemia.
Common to all, as to experiment: growth of human tumour cells (NCI), 48 h

Regarding `CCSc1nc(SCC)c2c(-c3ccc(OC)c(OC)c3)c(C#N)c(SCC)nc2n1`, the GI50 was 18700 nM in the assay with 786-0 renal; 83700 nM with CCRF-CEM leukemia; 43100 nM with KM12 colon; 13 µM with MDA-MB-231 breast; 68.5 µM in the assay on MOLT-4 leukemia; 10500 nM in the assay on OVCAR-3 ovarian. The GI50 with PC-3 prostate was 26600 nM; in the assay with SF-539 CNS it was 1950 nM; in the assay with SK-MEL-2 melanoma, 63800 nM; in the assay with SR leukemia it was 26500 nM. The TGI was 59.1 µM with 786-0 renal; greater than 100 µM with CCRF-CEM leukemia; greater than 100 µM with KM12 colon; 42 µM with MDA-MB-231 breast; greater than 100 µM with MOLT-4 leukemia; 32.5 µM with OVCAR-3 ovarian. Further, the TGI in the assay with PC-3 prostate was greater than 100 µM; in the assay with SF-539 CNS, 17.2 µM; in the assay with SK-MEL-2 melanoma, greater than 100 µM; with SR leukemia, greater than 100 µM.

Take `O=C1C(SCCO)=C(SCCO)C(=O)N1c1ccc(-c2ccccc2)cc1`: the GI50 was 1330 nM in the assay with 786-0 renal; 2340 nM in the assay on CCRF-CEM leukemia; 7550 nM with KM12 colon; 13.3 µM with MDA-MB-231 breast; 18.9 µM in the assay on MOLT-4 leukemia; 897 nM with OVCAR-3 ovarian. Besides, the GI50 with PC-3 prostate was 1070 nM; in the assay with SF-539 CNS, 1780 nM; in the assay with SK-MEL-2 melanoma, 259 nM; in the assay with SR leukemia, 182 nM. The TGI in the assay with 786-0 renal is 2.84 µM; with CCRF-CEM leukemia, 6.87 µM; with KM12 colon, 20.8 µM; in the assay on MDA-MB-231 breast, 32.7 µM; in the assay on MOLT-4 leukemia, 73.1 µM; with OVCAR-3 ovarian, 2.32 µM. Moreover, the TGI in the assay on PC-3 prostate is 7.57 µM; in the assay on SF-539 CNS it was 3.92 µM; in the assay with SK-MEL-2 melanoma, 1.69 µM; with SR leukemia, greater than 100 µM.

As to `Cn1cccc1-c1cc(-c2ccc(Br)cc2)[nH]c(=O)c1C#N`, the GI50 was greater than 100000 nM with 786-0 renal; greater than 100000 nM with CCRF-CEM leukemia; greater than 100000 nM in the assay with KM12 colon; 82.5 µM with MDA-MB-231 breast; 57.1 µM with MOLT-4 leukemia; 85800 nM in the assay on OVCAR-3 ovarian. For the same compound, the GI50 in the assay on PC-3 prostate is greater than 100000 nM; with SF-539 CNS, 89300 nM; with SK-MEL-2 melanoma it was greater than 100000 nM; in the assay with SR leukemia, greater than 100000 nM. In addition, the TGI in the assay on 786-0 renal, in the assay with CCRF-CEM leukemia, in the assay with KM12 colon, in the assay on MDA-MB-231 breast, with MOLT-4 leukemia and in the assay with OVCAR-3 ovarian was greater than 100 µM throughout. The TGI in the assay with PC-3 prostate, in the assay on SF-539 CNS, in the assay on SK-MEL-2 melanoma and with SR leukemia was greater than 100 µM throughout.

On to `Nc1ncnc2c1c(-c1ccc(Oc3ccccc3)cc1)nn2C[C@@H]1SSC[C@H]1O`, for which the GI50 in the assay with 786-0 renal is 2410 nM; in the assay with CCRF-CEM leukemia, 278 nM; with KM12 colon it was 208 nM; with MDA-MB-231 breast, 1.8 µM; in the assay with OVCAR-3 ovarian it was 819 nM; in the assay on PC-3 prostate, 3230 nM. The GI50 in the assay on SF-539 CNS was 1020 nM; with SK-MEL-2 melanoma it was 826 nM; with SR leukemia it was 163 nM. Further, the TGI in the assay with 786-0 renal is 8.31 µM; in the assay on CCRF-CEM leukemia, greater than 100 µM; in the assay on KM12 colon it was 16.7 µM; in the assay with MDA-MB-231 breast it was 5.45 µM; with OVCAR-3 ovarian, 9.76 µM; with PC-3 prostate, 15.5 µM. Also, the TGI was determined as 8.02 µM with SF-539 CNS, 3.13 µM in the assay on SK-MEL-2 melanoma and 11.8 µM with SR leukemia.

For `COc1ccccc1CNCCCN1C(=O)c2ccc3c4c(ccc(c24)C1=O)C(=O)N(CCCN)C3=O`, the GI50 in the assay on 786-0 renal is 1470 nM; in the assay with CCRF-CEM leukemia it was 441 nM; in the assay on KM12 colon, 1690 nM; with MDA-MB-231 breast it was 1.67 µM; in the assay on MOLT-4 leukemia it was 0.446 µM; in the assay on OVCAR-3 ovarian it was 329 nM. Moreover, the GI50 with PC-3 prostate was 1680 nM; in the assay on SF-539 CNS, 1210 nM; with SK-MEL-2 melanoma it was 1460 nM; in the assay with SR leukemia it was 243 nM. Moreover, the TGI amounted to 4.89 µM in the assay on 786-0 renal; 2.76 µM in the assay on CCRF-CEM leukemia; 3.25 µM with KM12 colon; 10.9 µM with MDA-MB-231 breast; 2.24 µM in the assay on MOLT-4 leukemia; 1.06 µM in the assay with OVCAR-3 ovarian. The TGI was found to be 4.95 µM in the assay on PC-3 prostate, 2.5 µM in the assay with SF-539 CNS, 3.31 µM in the assay on SK-MEL-2 melanoma and 1.36 µM in the assay on SR leukemia.

Take `N#CSCc1ccc(Cl)c(CSC#N)c1`: the GI50 in the assay with 786-0 renal was 301 nM; in the assay on CCRF-CEM leukemia, 103 nM; in the assay with KM12 colon, 545 nM; in the assay with MDA-MB-231 breast, 2.36 µM; in the assay with MOLT-4 leukemia it was 0.109 µM; with OVCAR-3 ovarian it was 165 nM. Besides, the GI50 was 1350 nM with PC-3 prostate, 117 nM with SF-539 CNS, 16200 nM in the assay on SK-MEL-2 melanoma and 64.2 nM in the assay on SR leukemia. Further, the TGI with 786-0 renal is 17.4 µM; in the assay on CCRF-CEM leukemia, 23.6 µM; with KM12 colon, greater than 41.9 µM; with MDA-MB-231 breast it was greater than 64 µM; with MOLT-4 leukemia, 53.5 µM; with OVCAR-3 ovarian, 18.1 µM. The TGI with PC-3 prostate was determined as 27.1 µM; in the assay on SF-539 CNS, 16.6 µM; in the assay on SK-MEL-2 melanoma, 73 µM; with SR leukemia, 19.2 µM.

`O=[N+]([O-])c1ccc(N2CCC(CCCC3CCN(c4ccc([N+](=O)[O-])cc4[N+](=O)[O-])CC3)CC2)c([N+](=O)[O-])c1`: the TGI in the assay with 786-0 renal was determined as 28.7 µM; in the assay with CCRF-CEM leukemia it was 35.9 µM; in the assay with KM12 colon it was 30.7 µM; with MDA-MB-231 breast, 36 µM; in the assay on MOLT-4 leukemia, 53.2 µM; in the assay with OVCAR-3 ovarian, 34.5 µM. The TGI with PC-3 prostate amounted to 33.7 µM; in the assay with SF-539 CNS, 36.7 µM; with SK-MEL-2 melanoma, 32 µM; with SR leukemia it was 74.7 µM.

(Values after PubChem BioAssay (NCI).)
